Columns and labels:
[1] = target: T1, Protein cereblon/Histone acetyltransferase p300 (Homo sapiens, UniProt Q09472+Q96SW2); experiment: PROTAC activity at p300/CRBN in AR positive human VCaP cells assessed as maximal protein degradation at 37 nM incubated for 4 hrs by Western blot analysis relative to control; assay type: cell-based
Target sequence in this assay (Q09472 2-2414 limits assumed): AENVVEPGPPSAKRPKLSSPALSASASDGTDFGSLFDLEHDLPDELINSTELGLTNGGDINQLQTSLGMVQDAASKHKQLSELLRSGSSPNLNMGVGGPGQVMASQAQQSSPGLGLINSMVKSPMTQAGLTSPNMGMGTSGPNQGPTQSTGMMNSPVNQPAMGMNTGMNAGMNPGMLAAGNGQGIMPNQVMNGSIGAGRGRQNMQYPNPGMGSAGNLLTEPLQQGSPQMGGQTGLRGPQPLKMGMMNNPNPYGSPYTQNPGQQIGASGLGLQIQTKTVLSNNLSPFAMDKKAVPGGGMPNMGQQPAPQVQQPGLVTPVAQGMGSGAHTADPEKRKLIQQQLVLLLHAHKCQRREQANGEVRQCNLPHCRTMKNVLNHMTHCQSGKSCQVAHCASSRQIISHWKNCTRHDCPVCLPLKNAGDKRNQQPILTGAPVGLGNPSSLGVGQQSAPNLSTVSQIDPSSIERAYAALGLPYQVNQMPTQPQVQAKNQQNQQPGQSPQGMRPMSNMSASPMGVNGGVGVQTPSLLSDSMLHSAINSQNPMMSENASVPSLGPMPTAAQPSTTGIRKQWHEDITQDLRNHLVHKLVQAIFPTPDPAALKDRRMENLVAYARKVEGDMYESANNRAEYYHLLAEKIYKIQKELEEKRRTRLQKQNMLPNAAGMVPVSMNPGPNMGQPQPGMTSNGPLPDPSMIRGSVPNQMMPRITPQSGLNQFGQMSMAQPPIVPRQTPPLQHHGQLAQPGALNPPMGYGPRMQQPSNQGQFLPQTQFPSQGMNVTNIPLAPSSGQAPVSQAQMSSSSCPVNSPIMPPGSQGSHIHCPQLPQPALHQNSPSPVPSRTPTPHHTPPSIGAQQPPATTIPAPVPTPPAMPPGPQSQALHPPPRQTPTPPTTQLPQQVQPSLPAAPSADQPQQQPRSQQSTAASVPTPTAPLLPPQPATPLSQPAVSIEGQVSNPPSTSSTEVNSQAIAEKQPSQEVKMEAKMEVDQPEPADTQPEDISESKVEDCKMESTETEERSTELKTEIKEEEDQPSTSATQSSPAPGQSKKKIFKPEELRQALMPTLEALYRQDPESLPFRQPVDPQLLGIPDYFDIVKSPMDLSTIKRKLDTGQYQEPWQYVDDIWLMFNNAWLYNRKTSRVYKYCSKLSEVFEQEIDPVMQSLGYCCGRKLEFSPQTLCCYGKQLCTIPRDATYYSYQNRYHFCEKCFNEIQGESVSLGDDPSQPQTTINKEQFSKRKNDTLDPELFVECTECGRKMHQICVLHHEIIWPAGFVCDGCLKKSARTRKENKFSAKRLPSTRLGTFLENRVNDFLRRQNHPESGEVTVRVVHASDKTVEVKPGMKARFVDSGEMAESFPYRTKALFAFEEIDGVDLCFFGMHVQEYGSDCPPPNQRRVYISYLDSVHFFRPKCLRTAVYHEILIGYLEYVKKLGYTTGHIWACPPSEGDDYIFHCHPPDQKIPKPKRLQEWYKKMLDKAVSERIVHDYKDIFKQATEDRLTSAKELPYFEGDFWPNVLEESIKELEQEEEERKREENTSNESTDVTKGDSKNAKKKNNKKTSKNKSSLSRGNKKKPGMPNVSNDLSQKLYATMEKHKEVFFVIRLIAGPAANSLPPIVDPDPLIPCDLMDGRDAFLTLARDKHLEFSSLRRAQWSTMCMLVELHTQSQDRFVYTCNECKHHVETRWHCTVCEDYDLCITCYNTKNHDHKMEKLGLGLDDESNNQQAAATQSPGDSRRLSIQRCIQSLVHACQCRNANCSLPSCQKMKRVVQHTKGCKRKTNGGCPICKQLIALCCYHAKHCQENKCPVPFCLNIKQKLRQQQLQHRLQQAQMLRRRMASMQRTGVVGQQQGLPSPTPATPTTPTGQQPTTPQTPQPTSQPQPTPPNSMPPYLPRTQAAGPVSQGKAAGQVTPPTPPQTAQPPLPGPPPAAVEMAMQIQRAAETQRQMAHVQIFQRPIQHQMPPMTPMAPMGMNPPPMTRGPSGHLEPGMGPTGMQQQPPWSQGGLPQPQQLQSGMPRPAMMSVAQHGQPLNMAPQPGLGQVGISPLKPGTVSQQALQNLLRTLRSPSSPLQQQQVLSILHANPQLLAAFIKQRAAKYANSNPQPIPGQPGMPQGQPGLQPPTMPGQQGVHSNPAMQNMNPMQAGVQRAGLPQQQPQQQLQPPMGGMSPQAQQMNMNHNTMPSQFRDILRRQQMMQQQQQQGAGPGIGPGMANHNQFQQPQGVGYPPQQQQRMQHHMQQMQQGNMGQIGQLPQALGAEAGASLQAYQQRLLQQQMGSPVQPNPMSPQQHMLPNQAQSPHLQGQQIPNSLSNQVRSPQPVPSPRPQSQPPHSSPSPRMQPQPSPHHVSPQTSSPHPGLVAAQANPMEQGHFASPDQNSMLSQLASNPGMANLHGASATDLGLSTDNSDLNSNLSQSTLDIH
Target sequence in this assay (Q96SW2 whole entry partner): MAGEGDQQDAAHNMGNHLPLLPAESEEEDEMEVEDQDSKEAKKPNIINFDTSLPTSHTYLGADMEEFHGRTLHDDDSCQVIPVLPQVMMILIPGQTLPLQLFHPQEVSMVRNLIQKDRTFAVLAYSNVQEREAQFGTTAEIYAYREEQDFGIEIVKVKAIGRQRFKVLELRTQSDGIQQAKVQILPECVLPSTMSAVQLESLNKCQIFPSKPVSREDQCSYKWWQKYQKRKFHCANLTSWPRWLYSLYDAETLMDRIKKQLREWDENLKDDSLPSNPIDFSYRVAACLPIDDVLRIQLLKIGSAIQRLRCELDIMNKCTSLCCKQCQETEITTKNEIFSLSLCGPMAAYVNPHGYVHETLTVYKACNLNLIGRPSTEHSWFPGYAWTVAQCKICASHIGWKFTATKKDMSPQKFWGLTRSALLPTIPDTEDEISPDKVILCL

[2] = Reduction in KLK3 gene expression in AR positive human LNCaP cells assessed as reduction in mRNA level at 10 nM measured after 6 hrs by qRT-PCT analysis relative to control; assay type: functional
[3] = target: T1, Protein cereblon/Histone acetyltransferase p300; experiment: PROTAC activity at p300/CRBN in human VCaP cells assessed as maximal protein degradation at 1 uM incubated for 4 hrs by Western blot analysis relative to control; assay type: cell-based
Target sequence in this assay (Q09472 2-2414 limits assumed): as the sequence (Q09472 2-2414 limits assumed) above
Target sequence in this assay (Q96SW2 whole entry partner): as the sequence (Q96SW2 whole entry partner) above

VCaP [4] = experiment: Potency index, ratio of ARV-110 IC50 to test compound IC50 for antiproliferative activity against AR positive human VCaP cells assessed inhibition of cell growth measured after 4 days by CellTiter-Glo Luminescent cell viability assay; assay type: functional; conditions: time 4 day
[5] = target: T2, Protein cereblon/CREB-binding protein (Homo sapiens, UniProt Q92793+Q96SW2); experiment: In vivo PROTAC activity at p300/CRBN in human VCaP cells xenografted in CB17 SCID mouse assessed as reduction in CBP protein at 1 mg/kg, po measured after 3 hrs; assay type: functional, organism-based; set-up: scale not given: the % may be the effect or the level left
[6] = Plasma concentration in CB17 SCID mouse xenografted with human VCaP cells at 1 mg/kg, po measured after 24 hrs by LC-MS/MS analysis; assay type: ADME, organism-based
[7] = Drug exposure in CB17 SCID mouse xenografted with human VCaP cells assessed compound concentration in tumor at 3 mg/kg, po measured after 3 hrs by LC-MS/MS analysis; assay type: ADME, organism-based, Neoplasm; conditions: read-out: Drug uptake
[8] = Clearance in male ICR mouse at 1 mg/kg, iv measured upto 24 hrs by LC-MS/MS analysis; assay type: ADME, organism-based; conditions: in vivo
[9] = target: T1, Protein cereblon/Histone acetyltransferase p300; experiment: PROTAC activity at p300/CRBN in human LNCaP cells assessed as protein degradation incubated for 4 hrs by Western blot analysis; assay type: cell-based
[10] = Toxicity in CB17 SCID mouse xenografted with human VCaP cells assessed as signs of toxicity at 0.3 to 1 mg/kg, po qd scheduled 5 days in a week measured on day 63; assay type: organism-based; conditions: in vivo, 120 h, dose 0.3-1 mg/kg, time 5 day
[11] = target: T2, Protein cereblon/CREB-binding protein; experiment: PROTAC activity at CBP/CRBN in AR positive human VCaP cells assessed as maximal protein degradation at 1000 nM incubated for 4 hrs by Western blot analysis relative to control; assay type: cell-based
[12] = Apparent permeability coefficient across apical to basolateral side in human Caco-2 cells at 10 uM incubated for 120 mins by LC-MS/MS analysis; assay type: ADME, cell-based; conditions: caco-2, 2 h
[13] = Oral bioavailability in male ICR mouse at 3 mg/kg measured upto 24 hrs by LC-MS/MS analysis; assay type: ADME, organism-based; conditions: in vivo
[14] = Plasma concentration in CB17 SCID mouse xenografted with human VCaP cells at 3 mg/kg, po measured after 3 hrs by LC-MS/MS analysis; assay type: ADME, organism-based
CWR22R [15] = experiment: Reduction in c-Myc gene expression in AR positive human 22Rv1 cells assessed as reduction in mRNA level measured after 6 hrs by qRT-PCT analysis relative to control; assay type: functional, cell-based; conditions: dose 0.1-1000 nM
[16] = target: T2, Protein cereblon/CREB-binding protein; experiment: In vivo PROTAC activity at p300/CRBN in human VCaP cells xenografted in CB17 SCID mouse assessed as reduction in CBP protein at 3 mg/kg, po measured after 3 hrs; assay type: functional, organism-based; set-up: scale not given: the % may be the effect or the level left
[17] = Reduction in AR gene expression in AR positive human VCaP cells assessed as reduction in mRNA level at 1 nM measured after 6 hrs by qRT-PCT analysis relative to control; assay type: functional
[18] = Toxicity in CB17 SCID mouse xenografted with human VCaP cells assessed as weight loss at 0.3 to 1 mg/kg, po qd scheduled 5 days in a week measured on day 63; assay type: organism-based; conditions: in vivo, 1512 h, dose 0.3-1 mg/kg, time 63 day
VCaP [19] = experiment: Reduction in AR gene expression in AR positive human VCaP cells assessed as reduction in mRNA level measured after 6 hrs by qRT-PCT analysis relative to control; assay type: functional, cell-based; conditions: dose 0.1-1000 nM
[20] = Reduction in AR gene expression in AR positive human 22Rv1 cells assessed as reduction in mRNA level at 10 nM measured after 6 hrs by qRT-PCT analysis relative to control; assay type: functional, CWR22R
[21] = target: T1, Protein cereblon/Histone acetyltransferase p300; experiment: PROTAC activity at p300/CRBN in human VCaP cells assessed as protein degradation incubated for 4 hrs by Western blot analysis; assay type: cell-based
[22] = Plasma concentration in CB17 SCID mouse xenografted with human VCaP cells at 1 mg/kg, po measured after 3 hrs by LC-MS/MS analysis; assay type: ADME, organism-based
VCaP [23] = experiment: Reduction in c-Myc gene expression in AR positive human VCaP cells assessed as reduction in mRNA level measured after 6 hrs by qRT-PCT analysis relative to control; assay type: functional, cell-based; conditions: dose 0.1-1000 nM
[24] = target: T2, Protein cereblon/CREB-binding protein; experiment: In vivo PROTAC activity at CBP/CRBN in human VCaP cells xenografted in SCID mouse assessed as reduction in CBP protein at 3 mg/kg, po measured after 24 hrs; assay type: functional, organism-based; set-up: scale not given: the % may be the effect or the level left
[25] = target: T1, Protein cereblon/Histone acetyltransferase p300; experiment: PROTAC activity at p300/CRBN in AR positive human VCaP cells assessed as maximal protein degradation at 0.15 nM incubated for 4 hrs by Western blot analysis relative to control; assay type: cell-based
Target sequence in this assay (Q09472 2-2414 limits assumed): as the sequence (Q09472 2-2414 limits assumed) above
Target sequence in this assay (Q96SW2 whole entry partner): as the sequence (Q96SW2 whole entry partner) above

[26] = target: T2, Protein cereblon/CREB-binding protein; experiment: PROTAC activity at CBP/CRBN in AR positive human VCaP cells assessed as maximal protein degradation at 12.3 nM incubated for 4 hrs by Western blot analysis relative to control; assay type: cell-based
[27] = target: T2, Protein cereblon/CREB-binding protein; experiment: PROTAC activity at CBP/CRBN in human 22Rv1 cells assessed as protein degradation incubated for 4 hrs by Western blot analysis; assay type: cell-based
[28] = Volume of distribution at steady state in male ICR mouse at 1 mg/kg, iv measured upto 24 hrs by LC-MS/MS analysis; assay type: ADME, organism-based; conditions: in vivo, read-out: Vdss
[29] = Reduction in AR gene expression in AR positive human LNCaP cells assessed as reduction in mRNA level at 10 nM measured after 6 hrs by qRT-PCT analysis relative to control; assay type: functional
[30] = target: T1, Protein cereblon/Histone acetyltransferase p300; experiment: PROTAC activity at p300/CRBN in human 22Rv1 cells assessed as maximal protein degradation at 1 uM incubated for 4 hrs by Western blot analysis relative to control; assay type: cell-based
Target sequence in this assay (Q09472 2-2414 limits assumed): as the sequence (Q09472 2-2414 limits assumed) above
Target sequence in this assay (Q96SW2 whole entry partner): as the sequence (Q96SW2 whole entry partner) above

[31] = target: T1, Protein cereblon/Histone acetyltransferase p300; experiment: PROTAC activity at p300/CRBN in human 22Rv1 cells assessed as protein degradation incubated for 4 hrs by Western blot analysis; assay type: cell-based
CWR22R [32] = experiment: Reduction in AR gene expression in AR positive human 22Rv1 cells assessed as reduction in mRNA level measured after 6 hrs by qRT-PCT analysis relative to control; assay type: functional, cell-based; conditions: dose 0.1-1000 nM
[33] = Half life in male ICR mouse at 3 mg/kg, po measured upto 24 hrs by LC-MS/MS analysis; assay type: ADME, organism-based; conditions: in vivo
LNCaP = experiment: Reduction in AR gene expression in AR positive human LNCaP cells assessed as reduction in mRNA level measured after 6 hrs by qRT-PCT analysis relative to control; assay type: functional, cell-based; conditions: dose 0.1-1000 nM

Activity [1]: 100% | Emax [3]: > 95% | Activity [5]: > 95% | concentration at 24 h [6]: 16 ng/mL | concentration at 3 h [7]: 141 ng/mL | clearance [8]: 1.7 mL/min/kg | DC50 [9]: 0.4 nM | Activity [11]: 51% | Papp [12]: 2.8 10^-6 cm/s | bioavailability [13]: 50% | concentration at 3 h [14]: 355 ng/mL | Activity [16]: > 95% | DC50 [21]: 0.2 nM | concentration at 3 h [22]: 95 ng/mL | Activity [24]: > 95% | Activity [25]: 50% | Activity [26]: 98% | DC50 [27]: 0.2 nM | Vd [28]: 0.4 L/kg | Emax [30]: 91% | DC50 [31]: 0.4 nM | half-life [33]: 2.6 h
Compound: CC(=O)N1CCc2c(c(N3CCCc4cc(-c5cnn(C)c5)c(C(F)F)cc43)nn2[C@H]2CC[C@H](CN3CCN(c4ccc5c(c4)C(=O)N(C4CCC(=O)NC4=O)C5=O)CC3)CC2)C1 (some centres undefined)
inhibition at 0.01 µM [2]: 70% | Ratio IC50 (VCaP [4]): >50 | Activity [10]: Non-Toxic | inhibition (CWR22R [15]): Dose-Dependent Effect | inhibition at 0.001 µM [17]: 77% | Activity [18]: Non-Toxic | inhibition (VCaP [19]): Dose-Dependent Effect | inhibition at 0.01 µM [20]: 43% | inhibition (VCaP [23]): Dose-Dependent Effect | inhibition at 0.01 µM [29]: 67% | inhibition (CWR22R [32]): Dose-Dependent Effect | inhibition (LNCaP): Dose-Dependent Effect
